From PMC10778704, “Comparative Analysis of Cyclization Techniques in Stapled Peptides: Structural Insights into Protein–Protein Interactions in a SARS-CoV-2 Spike RBD/hACE2 Model System” (International Journal of Molecular Sciences, 2023)
Bridge positions count the residues as written; N and C are the ends. Square brackets hold non-standard residues; d marks the D form. Peptide text beside a SMILES is read from it. S5 = C=CCCC[C@](C)(N)C(=O)O

Tested on: SARS-CoV-2 pseudovirus
Settings: 48 h, 735 μM

CC(=O)N[C@@H](Cc1c[nH]cn1)C(=O)N[C@@H](CCC(=O)O)C(=O)N[C@H]1CCCCNC(=O)C[C@@H](C(=O)N[C@@H](Cc2ccc(O)cc2)C(=O)N[C@@H](CCC(N)=O)C(N)=O)NC(=O)[C@H](CC(C)C)NC(=O)[C@H](CC(=O)O)NC(=O)[C@H](CCC(=O)O)NC1=O [peptide 4, Ac-NH-His-Glu-[Lys-Glu-Asp-Leu-Asp]-Tyr-Gln-CO-NH2] (Ac-HEKEDLDYQ-NH2; lactam 3-7)
Inhibition of the pseudovirus: 48%

CC(=O)N[C@@H](Cc1c[nH]cn1)C(=O)N[C@@H](CCC(=O)O)C(=O)N[C@@]1(C)CCC/C=C/CCC[C@@](C)(C(=O)N[C@@H](Cc2ccc(O)cc2)C(=O)N[C@@H](CCC(N)=O)C(N)=O)NC(=O)[C@H](CC(C)C)NC(=O)[C@H](CC(=O)O)NC(=O)[C@H](CCC(=O)O)NC1=O [peptide 11, Ac-NH-His-Glu-[S5-Glu-Asp-Leu-S5]-Tyr-Gln-CO-NH2] (Ac-HE[S5]EDL[S5]YQ-NH2; staple (E) 3-7)
Inhibition of the pseudovirus: 68%
